Measured values published in article PMC9475448, “What a difference a methylene makes: replacing Glu with Asp or Aad in the Lys-urea-Glu pharmacophore of PSMA-targeting radioligands to reduce kidney and salivary gland uptake” (Theranostics, 2022).

Test system: LNCaP tumor-bearing mice
Test: Ex vivo biodistribution of 177Lu-labeled ligands in LNCaP tumor-bearing NRG mice
[1] = 1 h post-injection, listed as [177Lu]Lu-HTK03149
[2] = 4 h post-injection, listed as [177Lu]Lu-HTK03149

O=C([O-])CN1CCN(CC(=O)[O-])CCN(CC(=O)NCC2CCC(C(=O)NC(Cc3c4ccccc4cc4ccccc34)C(=O)NCCCCC(NC(=O)NC(CCCC(=O)O)C(=O)O)C(=O)O)CC2)CCN(CC(=O)[O-])CC1.[177Lu+3] (centres unmarked) [[^177Lu]Lu-HTK03149]
Adrenal glands uptake (1 h post-injection): 0.352 ± 0.071 %IA/g | Blood uptake (1 h post-injection): 0.876 ± 0.073 %IA/g | Blood:Salivary gland uptake ratio (1 h post-injection): 3.98 ± 0.65 | Bone uptake (1 h post-injection): 0.072 ± 0.020 %IA/g | Brain uptake (1 h post-injection): 0.022 ± 0.002 %IA/g | Fat uptake (1 h post-injection): 0.136 ± 0.049 %IA/g | Heart uptake (1 h post-injection): 0.281 ± 0.036 %IA/g | Intestines uptake (1 h post-injection): 0.267 ± 0.063 %IA/g | Kidneys uptake (1 h post-injection): 7.67±1.35 %IA/g | Lacrimal glands uptake (1 h post-injection): 0.022 ± 0.006 %IA/g | Liver uptake (1 h post-injection): 0.264 ± 0.031 %IA/g | Lungs uptake (1 h post-injection): 0.721 ± 0.056 %IA/g | Muscle uptake (1 h post-injection): 0.182 ± 0.138 %IA/g | Pancreas uptake (1 h post-injection): 0.165 ± 0.028 %IA/g | Salivary glands uptake (1 h post-injection): 0.23±0.06 %IA/g | Spleen uptake (1 h post-injection): 0.260 ± 0.045 %IA/g | Stomach uptake (1 h post-injection): 0.096 ± 0.020 %IA/g | Testes uptake (1 h post-injection): 0.255 ± 0.019 %IA/g | Thyroid uptake (1 h post-injection): 0.269 ± 0.021 %IA/g | Tumor uptake (1 h post-injection): 13.96 ± 2.155 %IA/g | Tumor:Blood uptake ratio (1 h post-injection): 16.0 ± 2.44 | Tumor:Muscle uptake ratio (1 h post-injection): 101 ± 48.3 | Tumor:Salivary gland uptake ratio (1 h post-injection): 63.4 ± 13.6 | Kidneys uptake [1]: 7.672 ± 1.346 %IA/g | Salivary glands uptake [1]: 0.227 ± 0.062 %IA/g | Adrenal glands uptake (4 h post-injection): 0.085 ± 0.007 %IA/g | Blood uptake (4 h post-injection): 0.167 ± 0.033 %IA/g | Blood:Salivary gland uptake ratio (4 h post-injection): 3.32 ± 0.59 | Bone uptake (4 h post-injection): 0.016 ± 0.010 %IA/g | Brain uptake (4 h post-injection): 0.010 ± 0.001 %IA/g | Fat uptake (4 h post-injection): 0.021 ± 0.003 %IA/g | Heart uptake (4 h post-injection): 0.070 ± 0.013 %IA/g | Intestines uptake (4 h post-injection): 0.185 ± 0.067 %IA/g | Kidneys uptake (4 h post-injection): 1.67±0.38 %IA/g | Lacrimal glands uptake (4 h post-injection): 0.029 ± 0.014 %IA/g | Liver uptake (4 h post-injection): 0.108 ± 0.010 %IA/g | Lungs uptake (4 h post-injection): 0.169 ± 0.012 %IA/g | Muscle uptake (4 h post-injection): 0.021 ± 0.005 %IA/g | Pancreas uptake (4 h post-injection): 0.034 ± 0.004 %IA/g | Salivary glands uptake (4 h post-injection): 0.05±0.01 %IA/g | Spleen uptake (4 h post-injection): 0.089 ± 0.020 %IA/g | Stomach uptake (4 h post-injection): 0.049 ± 0.021 %IA/g | Testes uptake (4 h post-injection): 0.056 ± 0.005 %IA/g | Thyroid uptake (4 h post-injection): 0.066 ± 0.008 %IA/g | Tumor uptake (4 h post-injection): 20.9±2.99 %IA/g | Tumor:Muscle uptake ratio (4 h post-injection): 1028 ± 227 | Tumor:Salivary gland uptake ratio (4 h post-injection): 415 ± 60.5 | Kidneys uptake [2]: 1.666 ± 0.378 %IA/g | Salivary glands uptake [2]: 0.051 ± 0.010 %IA/g | Tumor uptake [2]: 20.90 ± 2.988 %IA/g | Adrenal glands uptake (24 h post-injection): 0.073 ± 0.018 %IA/g | Blood uptake (24 h post-injection): 0.116 ± 0.007 %IA/g | Blood:Salivary gland uptake ratio (24 h post-injection): 2.37 ± 0.24 | Bone uptake (24 h post-injection): 0.025 ± 0.003 %IA/g | Brain uptake (24 h post-injection): 0.006 ± 0.001 %IA/g | Fat uptake (24 h post-injection): 0.017 ± 0.002 %IA/g | Heart uptake (24 h post-injection): 0.065 ± 0.004 %IA/g | Intestines uptake (24 h post-injection): 0.086 ± 0.047 %IA/g | Kidneys uptake (24 h post-injection): 0.596 ± 0.109 %IA/g | Lacrimal glands uptake (24 h post-injection): 0.004 ± 0.005 %IA/g | Liver uptake (24 h post-injection): 0.103 ± 0.008 %IA/g | Lungs uptake (24 h post-injection): 0.122 ± 0.015 %IA/g | Muscle uptake (24 h post-injection): 0.017 ± 0.003 %IA/g | Pancreas uptake (24 h post-injection): 0.032 ± 0.005 %IA/g | Salivary glands uptake (24 h post-injection): 0.049 ± 0.007 %IA/g | Spleen uptake (24 h post-injection): 0.085 ± 0.012 %IA/g | Stomach uptake (24 h post-injection): 0.125 ± 0.112 %IA/g | Testes uptake (24 h post-injection): 0.047 ± 0.003 %IA/g | Thyroid uptake (24 h post-injection): 0.060 ± 0.002 %IA/g | Tumor uptake (24 h post-injection): 13.80 ± 2.876 %IA/g | Tumor:Blood uptake ratio (24 h post-injection): 120 ± 31.1
